Assay results as given in ChEMBL document CHEMBL1152974, “Ionic interactions for substituted MCH1R inhibitors studied by pK(a) values” (Bioorg Med Chem Lett, 2009).

How the values were obtained:
[1] = Association constant, pKa for quinoline nitrogen; assay type: physicochemical
[2] = Association constant, pKa for aliphatic nitrogen; assay type: physicochemical

| pKa [1] | pKa [2] | SMILES |
| --- | --- | --- |
| 8.91 |  | CC(=O)Nc1ccc2nc(N(C)CCO)ccc2c1 |
| 6.22 | 12.4 | CC(=O)Nc1ccc2nc(C(C)(C)CCN(C)C)ccc2c1 |
| 6.56 | 11.8 | CC(=O)Nc1ccc2nc(C(C)CCN(C)C)ccc2c1 (configuration not stated) |
| 4.33 | 11.6 | CC(=O)Nc1ccc2nc(SCCN(C)C)ccc2c1 |
| -1.39 |  | CC(=O)Nc1ccc2nc(F)ccc2c1 |
| 9.05 | 10.2 | CC(=O)Nc1ccc2nc(N(C)CCN(C)C)ccc2c1 |
| 12.2 | 10.8 | CC(=O)Nc1ccc2nc(NCCN(C)C)ccc2c1 |
| 8.98 | 12.7 | CC(=O)Nc1ccc2nc(CCCN(C)C)ccc2c1 |
| 4.64 | 9.94 | CC(=O)Nc1ccc2nc(OCCN(C)C)ccc2c1 |
| 5.51 |  | CC(=O)Nc1ccc2ncccc2c1 |
